Assay results published in patent publication US5376658A, “5,10-methylene-tetrahydrofolate as a modulator of a chemotherapeutic agent” (priority 1993, dated 1994).

What was measured:
[1] = test system: TS; test: TS assay in liver tumors of rats bearing transplanted hepatic colonic carcinoma; assay type: in vivo, rat; settings: 30 mg/kg each; 24 h after last injection; control 18.96
Source text: (§1) The present inventors have considerable experience with this model, and the antitumor effects of 5-FU shown are typical results, as are the TS and folate assays of control and 5-FU-only-treated rats. […] In fact, the "free TS" levels in the (6R,S)-FH4 -only-treated rats were the lowest of all arms of the study.
(§2) ^b Inoculation of 1 × 10^6 viable colon tumor
(§3) (nitrosoguanidineinduced) cells under the liver capsule on Day 1 (Carlsso
(§4) et al., Anticancer Res. 10:813-16 (1990)). Animals sacrificed on Day 17
(§5) for excision of single liver tumor nodules for pharmacodynamic studies.
(§6) ^d Assays done as described (Spears et al. Adv. Exp. Med. Biol.

[2] = cited from earlier work
[3] = test system: 5,10-CH2 FH4 and FH4 levels in liver tumor; test: Folate assay (5,10-CH2 FH4 and FH4) in liver tumors of rats; assay type: in vivo, rat; settings: 30 mg/kg each, 24 h after last injection
Source text: as §1, §2, §3, §4, §5, §6

[4] = test system: hepatic colonic carcinoma; test: Tumor weight in rats bearing transplanted hepatic colonic carcinoma; assay type: in vivo, rat
Source text: as §1
>94% by HPLC). The (6 R,S)FH 4 was weighed, dissolved in normal
saline, and injected daily by tail vein administration using the airfree
Protector device to prevent oxidative destruction of the folate.
as §2, §3, §4, §5

[5] = test system: CH2 FH4 and FH4 in breast cancer biopsies; test: CH2 FH4 and FH4 levels in breast cancer biopsies during L-serine infusion after high-dose (6R,S)-leucovorin; assay type: in vivo, human; parameters: CH2 FH4 / FH4: unit not given here
Experimental: As noted previously (see pages 5-6) and mentioned in C. P. Spears, et al., Proc. Am. Soc. Clin. Oncol. 8:69 (1989), the inventors have used pharmacologic intervention to convert intracellular FH4 to CH2 FH4 in patients receiving high-dose reduced folate therapy combined with weekly i.v. bolus 5-FU, 450 mg/sq. m. The method used was administration of i.v. L-serine, 15.0 grams, over 1 hour after the end of overnight high-dose (6R,S)-leucovorin i.v. infusion.
In contrast to the data shown in Tables II and III, the inventors were able to also assay for intratumoral FH4 in addition to CH2 FH4 (this latter is also referred to as "FBC" in those Tables or Folate-Binding Capacity), at time points during this pharmacologic forcing of metabolism of FH4 to CH2 FH4 through the enzyme, serine hydroxymethyltransferase. This enzyme splits a carbon of L-serine to generate formaldehyde in the presence of FH4.
^a Minutes after initiation of 15.0 gram LSerine i.v. 60min infusion,
after end of overnight (6R,S)leucovorin highdose i.v. infusion.
^b Assays performed as described (C.P. Spears et al., Adv. Exp. Med.

[6] = test system: breast cancer; test: Clinical effect in patients receiving 5-FU plus high-dose (6R,S)-leucovorin with L-serine or glycine; assay type: in vivo, human; settings: person; L-serine i.v. added to 5-FU/(6R,S)-leucovorin, subsequently glycine 10 grams i.v.
Experimental: As noted previously (see pages 5-6) and mentioned in C. P. Spears, et al., Proc. Am. […] Clin. Oncol. 8:69 (1989), the inventors have used pharmacologic intervention to convert intracellular FH4 to CH2 FH4 in patients receiving high-dose reduced folate therapy combined with weekly i.v. bolus 5-FU, 450 mg/sq. m. The method used was administration of i.v. L-serine, 15.0 grams, over 1 hour after the end of overnight high-dose (6R,S)-leucovorin i.v. infusion.

[7] = Dimedone trapping of labile 14CH2O group on dilution; assay type: physicochemical; settings: 46,664 DPM diluted to 1 ml in H2O, 37° C.
Source text: This requirement for a large excess of formaldehyde to shift the equilibrium between FH4 and CH2 FH4 (Eq. 1) was found by the inventors to
be independent of temperature, pH or the formaldehyde content of charcoal isolation, the presence of air exposure, or the presence of reducing agents. In addition, [11-^14 C]CH2 FH4 prepared as described (Moran et al., Proc. Natl. Acad. Sci. USA 76:1456-60 (1979)), and DEAE-purified (as the concentrated material) of excess ^14 CH2 O, was confirmed to have a labile ^14 CH2 O group by dimedone trapping.

[8] = test system: gastrointestinal cancers; settings: human, in vivo; cited from earlier work
[9] = separate confirmatory experiment, 6 rats/group
[10] = patient four, 25 min after initiation of 15.0 g L-serine i.v.
[11] = patient four, 82 min after initiation of 15.0 g L-serine i.v.
[12] = patient two, 22 min after initiation of 15.0 g L-serine i.v.
[13] = patient two, 65 min after initiation of 15.0 g L-serine i.v.

For Cl.Cl.Nc1nc2c(c(=O)[nH]1)NC(CNc1ccc(C(=O)N[C@@H](CCC(=O)O)C(=O)O)cc1)CN2.O (mixture of isomers) [(6R,S)-FH4, 5,6,7,8Tetrahydropteroyl-L-glutamic acid dihydrochloride monohydrate], the TS [1] is listed as 7.13 p mole/g, the stability of powder ([2]; anaerobic conditions, room temperature) is listed as “stable even at room temperature, for a year or more” and the “stability under anaerobic conditions” value ([2]; anaerobic conditions) is listed as “completely stable”. For the same compound, the degradation of solution ([2]; in […], exposed to air) was 90%, the “5,10-CH2 FH4” value ([3]; control 0.69) was 2.93 nmol/g and the FH4 ([3]; control 1.18) was 2.31 nmol/g. For the same compound, the Tumor weight ([4]; Day 17 after transplantation, 30 mg/kg each, average of 3 rats, control 5.84) was 10.43 g, the “tumor growth, % of control tumor weight” value [4, 9] was 171% and the “tumor size (weight)” value [4, 9] was 6.0 ± 1.1 g.
For N[C@@H](CO)C(=O)O [L-serine], the “Ratio of FH4/CH2 FH4” value ([5]; patient four, 25 min) was 2.9, the “CH2 FH4” value [5, 10] was 0.396 and the FH4 [5, 10] was 1.128. For the same compound, the “Ratio of FH4/CH2 FH4” value ([5]; patient four, 82 min) was 3.0, the “CH2 FH4” value [5, 11] was 0.475 and the FH4 [5, 11] was 1.420. For the same compound, the “Ratio of FH4/CH2 FH4” value ([5]; patient two, 22 min) was 3.4, the “CH2 FH4” value [5, 12] was 0.253 and the FH4 [5, 12] was 0.854. For the same compound, the “Ratio of FH4/CH2 FH4” value ([5]; patient two, 65 min) was 2.7, the “CH2 FH4” value [5, 13] was 0.340 and the FH4 [5, 13] was 0.907. For the same compound, the “Clinical effect, third patient” value [6] was “rapid acceleration of objective tumor growth and tumor symptoms”.
For Nc1nc2c(c(=O)[nH]1)N1[14CH2]N(c3ccc(C(=O)N[C@@H](CCC(=O)O)C(=O)O)cc3)CC1CN2 (stereo partly shown) [[11-^14 C]-CH2 FH4], the “label recoverable by chloroform extraction of dimedone (methone) product” value [7] was 67.8%.
In the case of Nc1nc2ncc(CNc3ccc(C(=O)N[C@@H](CCC(=O)O)C(=O)O)cc3)nc2c(=O)[nH]1 [folic acid], the “effect of addition to 5-FU therapy” value [8] is listed as “increase in toxicity without improved response rates”.
With NCC(=O)O [glycine] the “Clinical effect, third patient” value [6] was “rapid response to 5-FU therapy”.
